Measurements as given in PMC8036666, “Biological and Physico-Chemical Characteristics of Arginine-Rich Peptide Gemini Surfactants with Lysine and Cystine Spacers” (International Journal of Molecular Sciences, 2021).
Converted amounts (≈) assume the structure as drawn. “And” between values parts separate entries of the source, which are not always exact repeats. Identical values can stand only once. Like-named read-outs stand apart in the source and are kept apart here. Where a SMILES comes first, the peptide text is derived from it. Bridges are numbered along the chain shown (N, C = ends). Roman numbers before positions name the chains, in order. Side-chain parts run from the residue outwards. [ ]: non-standard residue; d: D form. The star is where a group is joined. Myristoyl = CCCCCCCCCCCCCC(=O)*; Lauroyl = CCCCCCCCCCCC(=O)*; Decanoyl = CCCCCCCCCC(=O)*; Nle = CCCC[C@H](N)C(=O)O; Octanoyl = CCCCCCCC(=O)*

Assays:
[1] = system: HaCaT cells; format: cell-based, human; conditions: 24 h
Protocol: Cells were trypsinized, and the medium was renewed 2–3 times per week. The cytotoxicity of compounds was assessed by the determination of cell metabolic activity by colorimetric CellTilter 96® Aqueous One Solution Cell Proliferation Assay (Promega, Madison, WI, USA), according to the manufacturer’s instructions. […] Every compound was medium-soluble in 37 °C; thus, the control cells were cultured with the medium. Serial dilutions of the tested compounds were always prepared prior to use. Cells were incubated with drugs for 24 h, and then, 20 μL of the CellTiter 96®AqueousOne Solution Reagent was added to each well containing cells maintained in 100 μL of culture medium.

[2] = system: human red blood cells (hRBCs); assay: Hemolysis assay; format: cell-based; conditions: red cells of human, 1 h
Protocol: The hemolysis assay was performed by using the method reported previously. Fresh human red blood cells (hRBCs) with anticoagulant (EDTA) were rinsed three times with a PBS by centrifugation at 800× g for 10 min and diluted with PBS. The compounds were serially diluted on a 96-well microtiter polystyrene plate, and hRBCs were added up to a final volume of 100 μL. The compound concentration ranged between 0.5 and 256 μg/mL and the final hRBCs concentration was 4% (v/v). Controls for zero (blank) and 100% hemolysis consisted of hRBCs suspended in PBS and 1% of Triton-X 100 (Carl Roth GmbH, Karlsruhe, Germany), respectively. The plate was incubated for 1 h at 37 °C and then centrifuged (800× g, 10 min, 4 °C). Subsequently, the supernatant was […] to new microtiter plates, and the absorbance at 540 nm was measured (Multiskan GO Microplate Spectrophotometer, Thermo Fisher Scientific, Vantaa, Finland). All experiments were conducted in triplicate. HC50 was calculated using an ic50.tk tool. The protocol of the study was approved by the local Bioethics Committee at the Medical University of Gdańsk (NKBBN/262/2019, approval date: 10 June 2019).

[3] = system: Klebsiella pneumoniae ATCC 700603
Protocol: (§1) The Acinetobacter baumannii ATCC BAA-1605, Enterococcus faecium ATCC 700221, Escherichia coli ML-35 ATCC 43827, Klebsiella aerogenes ATCC 13048, Klebsiella pneumoniae ATCC 700603, Pseudomonas aeruginosa ATCC 9027, Staphylococcus aureus ATCC 25923, Staphylococcus aureus ATCC 33591, Candida albicans ATCC 10231, Candida glabrata ATCC 15126, strains were acquired from the American Type Culture Collection (ATCC). All the strains were stored at −80 °C in Roti-Store cryo vials and before the tests were transferred into fresh Mueller–Hinton broth (MHB, Biocorp, Warsaw, Poland) for bacteria or RPMI-1640 (Sigma-Aldrich, Steinheim, Germany) for fungi and incubated for 24 h at 37 °C. Then, the cultures were seeded on the Mueller–Hinton agar (BioMaxima, Lublin, Poland) or Sabouraud dextrose agar (SDA, BioMaxima, Lublin, Poland) plates, respectively, and incubated as just mentioned. These agar cultures were used for further microbiological assays. Cell densities for all assays were adjusted spectrophotometrically (Multiskan GO Microplate Spectrophotometer, Thermo Fisher Scientific, Vantaa, Finland) at 600 and 530 nm for bacteria and fungi, respectively.
(§2) The MICs were determined by the broth microdilution method according to the Clinical and Laboratory Standard Institute guidelines. […] The experiments were conducted on 96-well microtiter polystyrene plates (Kartell, Noviglio, Italy). The growth was assessed visually after incubation, and the MIC was assumed as the lowest peptide concentration at which a noticeable growth of microorganisms was inhibited. All experiments were conducted in triplicate.

[4] = system: Staphylococcus aureus ATCC 25923
Protocol: as §1, §2

[5] = system: Pseudomonas aeruginosa ATCC 9027
Protocol: as §1, §2

[6] = system: Acinetobacter baumannii ATCC BAA 1605; conditions: ATCC BAA 1605, 24 h
Protocol: as §1, §2

[7] = system: Klebsiella aerogenes ATCC 13048; conditions: ATCC 13048, 24 h
Protocol: as §1, §2

[8] = system: Enterococcus faecium ATCC 700221
Protocol: as §1, §2

[9] = Critical aggregation concentration by surface tension (Du Noüy ring, K100 tensiometer); format: physicochemical; conditions: unbuffered aqueous solution, 298 K
Protocol: The identity of the purified peptides was confirmed with electrospray ionization mass spectrometry (ESI-MS) in positive ion mode. Results of MS analyses and net charge are attached in Supplementary Materials (Table S1). Peptides’ hydrophobicity was evaluated by analytical reversed-phase high-performance liquid chromatography (RP-HPLC). The critical aggregation concentrations (CACs) of the lipopeptides were determined in unbuffered aqueous solution at 298 K by measuring the surface tension as a function of lipopeptide concentration. The measurements were carried out by the Du Noüy ring method on a K100 tensiometer. The surface tension data were plotted against the logarithm of lipopeptide concentration. CAC was found as the intersection of two lines being linear regression of data below and above CAC.
The critical aggregation concentration (CAC) values were determined fully automatically using a K100 tensiometer (KRUSS, Hamburg, Germany) equipped with two micro dosimeters by measuring the surface tension vs. lipopeptide concentration. The measurements were performed in unbuffered aqueous solution at 298 K using the Du Noüy ring method. The accuracy of the surface tension measurements was 0.1 mN/m. The critical aggregation concentration (CAC) was defined as the intersection of two lines fitted to the experimental data collected before and after the inflection point.

[10] = system: Staphylococcus aureus ATCC 33591
Protocol: as §1, with “[…],” for “Poland) for bacteria or RPMI-1640 (Sigma-Aldrich,”, “Cell densities for all assays were adjusted spectrophotometrically (Multiskan GO Microplate Spectrophotometer, Thermo Fisher Scientific, Vantaa, Finland) at 600 and 530 nm for bacteria and fungi, respectively.” left out
as §2

SMILES	IC50 [1] [µg/mL]	HC50 [2] [µg/mL]	MIC Klebsiella pneumoniae ATCC 700603 ([3]; planktonic culture) [µg/mL]	MIC Staphylococcus aureus ATCC 25923 ([4]; ATCC 25923, 24 h) [µg/mL]	MIC Pseudomonas aeruginosa ATCC 9027 ([5]; ATCC 9027, 24 h) [µg/mL]	MIC Acinetobacter baumannii ATCC BAA 1605 [6]	MIC Klebsiella aerogenes ATCC 13048 [7]	MIC Enterococcus faecium ATCC 700221 ([8]; ATCC 700221, 24 h) [µg/mL]	CAC [9]	Surface Tension at CAC [9] [mN/m]	MIC Staphylococcus aureus ATCC 33591 ([10]; ATCC 33591, 24 h) [µg/mL]	MIC Klebsiella pneumoniae ATCC 700603 ([3]; ATCC 700603, 24 h)	MIC Staphylococcus aureus ATCC 25923 ([4]; planktonic culture)	MIC Pseudomonas aeruginosa ATCC 9027 ([5]; planktonic culture)	MIC Enterococcus faecium ATCC 700221 ([8]; planktonic culture)	MIC Staphylococcus aureus ATCC 33591 ([10]; planktonic culture)
CCCCCCCC(=O)N[C@@H](CCCC)C(=O)N[C@@H](CCCNC(=N)N)C(=O)N[C@@H](CCCNC(=N)N)C(=O)N[C@@H](CSSC[C@H](NC(=O)[C@H](CCCNC(=N)N)NC(=O)[C@H](CCCNC(=N)N)NC(=O)[C@H](CCCC)NC(=O)CCCCCCC)C(N)=O)C(N)=O [Compound C6] (I: Octanoyl-[Nle]RRC-NH2 / II: Octanoyl-[Nle]RRC-NH2; disulfide I:4-II:4)	248.83 ± 18.81 (≈ 185 µM)	>256	64 (≈ 47.7 µM)	2 (≈ 1.49 µM)	8 (≈ 5.96 µM)	32 µg/mL (≈ 23.8 µM)	256 (−/−) µg/mL	2 (≈ 1.49 µM)	4.28 mM and 5737.7 μg/mL	35	2 (≈ 1.49 µM)					
CCCCCCCCCCCCCC(=O)N[C@@H](CCCNC(=N)N)C(=O)N[C@@H](CCCNC(=N)N)C(N)=O [Compound A4, C14-RR-NH2] (Myristoyl-Arg-Arg-NH2)	46.48 ± 3.65 (≈ 86.1 µM)			8 (≈ 14.8 µM)	32 (≈ 59.3 µM)	64 µg/mL (≈ 119 µM)	256 (−/−) µg/mL	8 (≈ 14.8 µM)	1.67 mM and 899.7 μg/mL	35	8 (≈ 14.8 µM)	256 (−/−) µg/mL				
CCCCCCCCCCCC(=O)N[C@@H](CCCNC(=N)N)C(=O)N[C@@H](CCCNC(=N)N)C(N)=O [Compound A3, C12-RR-NH2] (Lauroyl-Arg-Arg-NH2)	153.50 ± 8.13 (≈ 300 µM)			32 (≈ 62.5 µM)	128 (≈ 250 µM)	256 (−/−) µg/mL	>256 (−/−) µg/mL	32 (≈ 62.5 µM)	7.48 mM and 3827.3 μg/mL	38	32 (≈ 62.5 µM)	>256 (−/−) µg/mL				
CCCCCCCC(=O)N[C@@H](CCCNC(=N)N)C(=O)N[C@@H](CCCNC(=N)N)C(=O)NCCCC[C@H](NC(=O)[C@H](CCCNC(=N)N)NC(=O)[C@H](CCCNC(=N)N)NC(=O)CCCCCCC)C(N)=O [Compound B1] (Octanoyl-Arg-Arg-Lys([Arg-Arg-Octanoyl])-NH2)	378.40 ± 93.71 (≈ 370 µM)	>256		4 (≈ 3.91 µM)	32 (≈ 31.3 µM)	256 (−/−) µg/mL	>256 (−/−) µg/mL	64 (≈ 62.6 µM)			8 (≈ 7.83 µM)	>256 (−/−) µg/mL				
CCCCCCCC(=O)N[C@@H](CCCNC(=N)N)C(=O)N[C@@H](CCCNC(=N)N)C(N)=O [Compound A1, C8-RR-NH2] (Octanoyl-Arg-Arg-NH2)	>500					>256 (−/−) µg/mL	>256 (−/−) µg/mL					>256 (−/−) µg/mL	>256 (−/−) µg/mL	>256 (−/−) µg/mL	>256 (−/−) µg/mL	>256 (−/−) µg/mL
CCCCCCCC(=O)N[C@@H](CCCNC(=N)N)C(=O)N[C@@H](CCCNC(=N)N)C(=O)N[C@@H](CSSC[C@H](NC(=O)[C@H](CCCNC(=N)N)NC(=O)[C@H](CCCNC(=N)N)NC(=O)CCCCCCC)C(N)=O)C(N)=O [Compound C1] (I: Octanoyl-Arg-Arg-Cys-NH2 / II: Octanoyl-Arg-Arg-Cys-NH2; disulfide I:3-II:3)	>500	>256		8 (≈ 7.17 µM)	64 (≈ 57.4 µM)	256 (−/−) µg/mL	>256 (−/−) µg/mL	32 (≈ 28.7 µM)			16 (≈ 14.3 µM)	>256 (−/−) µg/mL				
CCCCCCC(CCCC)C(=O)N[C@@H](CCCNC(=N)N)C(=O)N[C@@H](CCCNC(=N)N)C(=O)NCCCC[C@H](NC(=O)[C@H](CCCNC(=N)N)NC(=O)[C@H](CCCNC(=N)N)NC(=O)C(CCCC)CCCCCC)C(N)=O (some centres unmarked) [Compound B7]	78.78 ± 6.93 (≈ 69.4 µM)	>256		1 (≈ 0.881 µM)	4 (≈ 3.53 µM)	32 µg/mL (≈ 28.2 µM)	16 µg/mL (≈ 14.1 µM)	1 (≈ 0.881 µM)			0.5 (≈ 0.441 µM)	32 µg/mL (≈ 28.2 µM)				
CCCCCCCCCC(=O)N[C@@H](CCCNC(=N)N)C(=O)N[C@@H](CCCNC(=N)N)C(N)=O [Compound A2, C10-RR-NH2] (Decanoyl-Arg-Arg-NH2)	>500					>256 (−/−) µg/mL	>256 (−/−) µg/mL					>256 (−/−) µg/mL	256 (−/−) µg/mL	>256 (−/−) µg/mL	256 (−/−) µg/mL	256 (−/−) µg/mL
